Experimental findings from patent US20110166123A1, “NOVEL COMPOSITIONS AND METHODS OF USE” (priority 2008, published 2011) are described below.

The structures appear in SMILES notation. A value given as a limit tells only on which side of the number the result lay.

The subject of the first data set is human immunodeficiency virus type 1 (HIV-1). Kind of data set: microbe, parasite or virus in culture. It is filed as cell-based. The note with it: Human immunodeficiency virus 1, HeLa, 48 h, HIV-1 luciferase reporter, HeLa cells, 48 hours after infection. (In general: In a reporter assay the amount or activity of a reporter protein is the signal.)
Compound `COc1nc2c(cc1NCc1c(F)cc(F)cc1F)c(=O)c(C(=O)O)cn2[C@H](CO)C(C)C` [Example 20AA, (S)-1-(1-hydroxy-3-methylbutan-2-yl)-7-methoxy-4-oxo-6-(2,4,6-trifluorobenzylamino)-1,4-dihydro-1,8-naphthyridine-3-carboxylic acid] registered a concentration for a half-maximal effect (EC50) of less than 10 nM.

`CC(C)[C@@H](CO)n1cc(C(=O)O)c(=O)c2cc(NCc3c(F)cc(F)cc3F)ccc21` [Example 22C, (S)-1-(1-hydroxy-3-methylbutan-2-yl)-4-oxo-6-(2,4,6-trifluorobenzylamino)-1,4-dihydroquinoline-3-carboxylic acid] came in with a concentration giving a half-maximal response (EC50) of 10 to 100 nM.

Take `COc1nc2c(cc1Cc1cccc(Cl)c1F)c(=O)c(C(=O)O)cn2C[C@H](O)c1ccccc1` [Example 1Q]: the 50% effective concentration (EC50) was greater than 100 nM.

As for `COc1nc2c(cc1CN1CCc3ccccc3C1)c(=O)c(C(=O)O)cn2[C@H](CO)C(C)C` [Example 12H], the EC50 is greater than 100 nM.

`COc1nc2c(cc1-c1ccc(F)c(Cl)c1)c(=O)c(C(=O)O)cn2[C@H](CO)C(C)C` [Example 17D]: the concentration for a half-maximal effect (EC50) is greater than 100 nM.

The compound `CCOc1nc2c(cc1NCc1c(F)cc(F)cc1F)c(=O)c(C(=O)O)cn2[C@H](CO)C(C)C` [Example 27B, (S)-7-Ethoxy-1-(1-hydroxy-3-methylbutan-2-yl)-4-oxo-6-(2,4,6-trifluorobenzylamino)-1,4-dihydro-1,8-naphthyridine-3-carboxylic acid] gave an EC50 of 10 to 100 nM.

For `CC(C)(C)[C@@H](CO)n1cc(C(=O)O)c(=O)c2cc(Cc3cccc(Cl)c3F)c(O)nc21` [Example 2B, (S)-6-(3-chloro-2-fluorobenzyl)-7-hydroxy-1-(1-hydroxy-3,3-dimethylbutan-2-yl)-4-oxo-1,4-dihydro-1,8-naphthyridine-3-carboxylic acid], the concentration for a half-maximal effect (EC50) was in the range of 10 to 100 nM.

Regarding `COc1nc2c(cc1CNc1c(F)cc(F)cc1F)c(=O)c(C(=O)O)cn2[C@H](CO)C(C)C` [Example 12A, (S)-1-(1-hydroxy-3-methylbutan-2-yl)-7-methoxy-4-oxo-6-((2,4,6-trifluorophenylamino)methyl)-1,4-dihydro-1,8-naphthyridine-3-carboxylic acid], the EC50 was greater than 100 nM.

With `COc1nc2c(cc1NCc1ccc(F)cc1)c(=O)c(C(=O)O)cn2[C@H](CO)C(C)(C)C` [Example 20MM, (S)-6-(4-fluorobenzylamino)-1-(1-hydroxy-3,3-dimethylbutan-2-yl)-7-methoxy-4-oxo-1,4-dihydro-1,8-naphthyridine-3-carboxylic acid], the 50% effective concentration (EC50) is greater than 100 nM.

For `COc1nc2c(cc1CNCc1c(F)cc(F)cc1F)c(=O)c(C(=O)O)cn2[C@H](CO)C(C)C` [Example 12G], the EC50 is greater than 100 nM.

On to `CC(C)[C@@H](CO)n1cc(C(=O)O)c(=O)c2cc(OCc3ccc(F)cc3)ccc21` [Example 23A, (S)-6-(4-fluorobenzyloxy)-1-(1-hydroxy-3-methylbutan-2-yl)-4-oxo-1,4-dihydroquinoline-3-carboxylic acid], for which the 50% effective concentration (EC50) is greater than 100 nM.

`CC(C)[C@@H](CO)n1cc(C(=O)O)c(=O)c2cc(Cc3ccc(F)c(F)c3)ncc21` [Example 5B, 6-(3,4-Difluoro-benzyl)-1-((S)-1-hydroxymethyl-2-methyl-propyl)-4-oxo-1,4-dihydro-[1,7]naphthyridine-3-carboxylic acid]: the 50% effective concentration (EC50) is greater than 100 nM.

`CCC(C)C(CO)n1cc(C(=O)O)c(=O)c2cc(Cc3cccc(Cl)c3F)ncc21` (stereo not drawn) [Example 5H] yielded a concentration giving a half-maximal response (EC50) of 10 to 100 nM.

For the compound `COc1nc2c(cc1NCc1cc(F)c(F)cc1F)c(=O)c(C(=O)O)cn2[C@H](CO)C(C)C` [Example 20II, (S)-1-(1-hydroxy-3-methylbutan-2-yl)-7-methoxy-4-oxo-6-(2,4,5-trifluorobenzylamino)-1,4-dihydro-1,8-naphthyridine-3-carboxylic acid], the half-maximal effective concentration (EC50) is greater than 100 nM.

`COc1nc2c(cc1-c1ccc(Cl)c(F)c1)c(=O)c(C(=O)O)cn2[C@H](CO)C(C)C` [Example 17B] returned a concentration for a half-maximal effect (EC50) greater than 100 nM.

In the case of `COc1nc2c(cc1NCc1ccccc1Cl)c(=O)c(C(=O)O)cn2[C@H](CO)C(C)C` [Example 20M, (S)-6-(2-chlorobenzylamino)-1-(1-hydroxy-3-methylbutan-2-yl)-7-methoxy-4-oxo-1,4-dihydro-1,8-naphthyridine-3-carboxylic acid], the 50% effective concentration (EC50) was greater than 100 nM.

Take `COc1nc2c(cc1NCc1cc(F)ccc1F)c(=O)c(C(=O)O)cn2[C@H](CO)C(C)C` [Example 20CC, (S)-6-(2,5-difluorobenzylamino)-1-(1-hydroxy-3-methylbutan-2-yl)-7-methoxy-4-oxo-1,4-dihydro-1,8-naphthyridine-3-carboxylic acid]: the half-maximal effective concentration (EC50) was greater than 100 nM.

Take `COCCOc1cc2c(cc1NCc1ccc(F)cc1)c(=O)c(C(=O)O)cn2[C@H](CO)C(C)(C)C` [Example 27C, (S)-6-(4-fluorobenzylamino)-1-(1-hydroxy-3,3-dimethylbutan-2-yl)-7-(2-methoxyethoxy)-4-oxo-1,4-dihydroquinoline-3-carboxylic acid]: the half-maximal effective concentration (EC50) is 10 to 100 nM.

`COc1nc2c(cc1COc1ccc(F)cc1F)c(=O)c(C(=O)O)cn2[C@H](CO)C(C)C` [Example 14B] came in with a half-maximal effective concentration (EC50) greater than 100 nM.

Turning to `CC(C)[C@@H](CO)n1cc(C(=O)O)c(=O)c2cc(Cc3ccc(Cl)c(Cl)c3)ncc21` [Example 5Q], the concentration for a half-maximal effect (EC50) lay within 10 to 100 nM.

Compound `CC(C)[C@@H](CO)n1cc(C(=O)O)c(=O)c2cc(Cc3cccc(Cl)c3)ncc21` [Example 5C, 6-(3-Chloro-benzyl)-1-((S)-1-hydroxymethyl-2-methyl-propyl)-4-oxo-1,4-dihydro-[1,7]naphthyridine-3-carboxylic acid] had a concentration for a half-maximal effect (EC50) greater than 100 nM.

As to `COc1nc2c(cc1NCc1c(F)cccc1F)c(=O)c(C(=O)O)cn2[C@H](CO)C(C)C` [Example 20Z, (S)-6-(2,6-difluorobenzylamino)-1-(1-hydroxy-3-methylbutan-2-yl)-7-methoxy-4-oxo-1,4-dihydro-1,8-naphthyridine-3-carboxylic acid], the concentration for a half-maximal effect (EC50) was 10 to 100 nM.

Compound `COc1nc2c(cc1Nc1ccc(Cl)c(F)c1)c(=O)c(C(=O)O)cn2[C@H](CO)C(C)C` [Example 20PP, (S)-6-(4-chloro-3-fluorophenylamino)-1-(1-hydroxy-3-methylbutan-2-yl)-7-methoxy-4-oxo-1,4-dihydro-1,8-naphthyridine-3-carboxylic acid] registered an EC50 greater than 100 nM.

Consider `COc1cc2c(cc1CCc1ccc(F)cc1F)c(=O)c(C(=O)O)cn2[C@H](CO)C(C)(C)C` [Example 18A, 6-[2-(2,4-Difluoro-phenyl)-ethyl]-1-((S)-1-hydroxymethyl-2,2-dimethyl-propyl)-7-methoxy-4-oxo-1,4-dihydro-quinoline-3-carboxylic acid], for which the concentration giving a half-maximal response (EC50) is greater than 100 nM.

`CC(C)[C@@H](CO)n1cc(C(=O)O)c(=O)c2cc(Cc3cccc(Cl)c3F)c(F)nc21` [Example 2KK] showed an EC50 of 10 to 100 nM.

In the case of `CC(C)(C)[C@@H](CO)n1cc(C(=O)O)c(=O)c2cc(Cc3cccc(Cl)c3F)c(N)nc21` [Example 3A, (S)-7-Amino-6-(3-chloro-2-fluorobenzyl)-1-(1-hydroxy-3,3-dimethylbutan-2-yl)-4-oxo-1,4-dihydro-1,8-naphthyridine-3-carboxylic acid], the concentration for a half-maximal effect (EC50) was less than 10 nM.

Compound `COc1cc2c(cc1NCc1c(F)cc(F)cc1F)c(=O)c(C(=O)O)cn2[C@H](CO)C(C)C` [Example 21B, (S)-1-(1-hydroxy-3-methylbutan-2-yl)-7-methoxy-4-oxo-6-(2,4,6-trifluorobenzylamino)-1,4-dihydroquinoline-3-carboxylic acid] had an EC50 of less than 10 nM.

Compound `COc1nc2c(cc1NCc1cccc(Cl)c1)c(=O)c(C(=O)O)cn2[C@H](CO)C(C)C` [Example 20I, (S)-6-(3-chlorobenzylamino)-1-(1-hydroxy-3-methylbutan-2-yl)-7-methoxy-4-oxo-1,4-dihydro-1,8-naphthyridine-3-carboxylic acid] returned a concentration giving a half-maximal response (EC50) greater than 100 nM.

Regarding `COc1nc2c(cc1N1CCCc3ccccc31)c(=O)c(C(=O)O)cn2[C@H](CO)C(C)C` [Example 17O], the EC50 was greater than 100 nM.

Regarding `COc1nc2c(cc1N1CCc3cc(F)ccc3C1)c(=O)c(C(=O)O)cn2[C@H](CO)C(C)C` [Example 17M], the 50% effective concentration (EC50) is greater than 100 nM.

`O=C(O)c1cn(C[C@H](O)c2ccccc2)c2cnc(Cc3cccc(Cl)c3F)cc2c1=O` [Example 5O] had an EC50 greater than 100 nM.

Consider `COc1nc2c(cc1NCc1cccc(C(F)(F)F)c1)c(=O)c(C(=O)O)cn2[C@H](CO)C(C)C` [Example 20X, (S)-1-(1-hydroxy-3-methylbutan-2-yl)-7-methoxy-4-oxo-6-(3-(trifluoromethyl)benzylamino)-1,4-dihydro-1,8-naphthyridine-3-carboxylic acid], for which the concentration for a half-maximal effect (EC50) was greater than 100 nM.

Compound `CC(C)(C)[C@@H](CO)n1cc(C(=O)O)c(=O)c2cc(NCc3c(F)cc(F)cc3F)c(N3CCOCC3)nc21` [Example 27E, (S)-1-(1-hydroxy-3,3-dimethylbutan-2-yl)-7-morpholino-4-oxo-6-(2,4,6-trifluorobenzylamino)-1,4-dihydro-1,8-naphthyridine-3-carboxylic acid] registered a concentration for a half-maximal effect (EC50) of 10 to 100 nM.

In the case of `COc1nc2c(cc1Cc1cccc(Cl)c1F)c(=O)c(C(=O)O)cn2[C@H](CO)C(C)(C)C` [Example 1H], the EC50 was less than 10 nM.

`C[C@H](CO)n1cc(C(=O)O)c(=O)c2cc(Cc3cccc(Cl)c3F)ncc21` [Example 5K] gave a 50% effective concentration (EC50) greater than 100 nM.

Still in this data set, the particulars now being: Human immunodeficiency virus 1, HeLa, HIV-1 luciferase reporter, HeLa cells.
Turning to `COc1nc2c(cc1COc1ccc(F)cc1F)c(=O)c(C(=O)O)cn2[C@H](CO)C(C)C` [Example 14B], the EC50 is greater than 2500 nM.

The same data set, now with this note: Human immunodeficiency virus 1, read-out: Rank, rank of EC50, HIV-1 luciferase reporter.
For the compound `COc1nc2c(cc1COc1ccc(F)cc1F)c(=O)c(C(=O)O)cn2[C@H](CO)C(C)C` [Example 14B], the EC50 was greater than 100 nM.

Tested on in another data set: not listed separately
Kind of data set: Hepatocyte stability (Example 36), rat. The note with it: rat hepatocytes 1 million cells/mL, 37° C., 4 hours, LC-MS/MS.
For `COc1nc2c(cc1NCc1c(F)cc(F)cc1F)c(=O)c(C(=O)O)cn2[C@H](CO)C(C)C` [Example 20AA, (S)-1-(1-hydroxy-3-methylbutan-2-yl)-7-methoxy-4-oxo-6-(2,4,6-trifluorobenzylamino)-1,4-dihydro-1,8-naphthyridine-3-carboxylic acid], the “% Remaining (rat)” value is recorded as 43%.

Tested on in another data set: not listed separately
The data set can be described thus: Hepatocyte stability (Example 36), human. The note with it: human hepatocytes 1 million cells/mL, 37° C., 4 hours, LC-MS/MS.
Turning to `COc1nc2c(cc1NCc1c(F)cc(F)cc1F)c(=O)c(C(=O)O)cn2[C@H](CO)C(C)C` [Example 20AA, (S)-1-(1-hydroxy-3-methylbutan-2-yl)-7-methoxy-4-oxo-6-(2,4,6-trifluorobenzylamino)-1,4-dihydro-1,8-naphthyridine-3-carboxylic acid], the “% Remaining (human)” value was determined as 75%.

What is called EC50 is the concentration that produces a half-maximal response.
